Results on 2 molecules are retold here after patent publication US7214386B2, “Method for the treatment and prevention of overweight in mammals” (priority 2002, dated 2007).

Test [1] is described as follows: Plasma glucose in rats (oxidase-peroxidase method). The following applies: rats on high fat diet, after 2½ weeks of treatment versus after 1 week on the high fat diet.
Test [2] can be described thus: Plasma insulin in rats (radioimmunoassay). The note with it: rats on high fat diet, after 2½ weeks of treatment versus after 1 week on the high fat diet.
Test [3] relates to 3T3-L1 cells. The test is described as follows: Effect of dill extract on isoprenaline-stimulated lipolysis (glycerol formation) in differentiated 3T3-L1 cells. The format is cell-based. The note with it: 24 hours incubation, glycerol formation of sample A divided by that of sample B (isoprenaline alone). Here is the method: 3T3-L1 cells were grown in T75 flasks. The cells were detached by trypsin incubation (±5 min at 37° C.). After detachment, 4 ml lipolysis standard medium was added to the flask (DMEM; 10% fetal calf serum; 4.5 g/l D-glucose; 100 U/ml penicillin; 100 μg/ml streptomycin) and the cells were suspended therein. The cell suspension was then diluted in lipolysis standard medium to 50000 cells/ml (5000 cells/100 μl), and 100 μl of this diluted cell mix was transferred to a precoated well in a 96 wells plate. […] Thereafter the solution was removed). After incubation for 48 hours at 37° C., the medium was refreshed (removal of old medium and addition of 100 μl lipolysis standard medium) and the cells incubated at 37° C. After 72 hours, the supernatant was removed and 100 μl differentiation medium (5 μg/ml bovine insuline; 0.25 μM dexamethasone; 0.5 mM IBMX; in standard medium) was added. […] After 24 hours incubation at 37° C., the glycerol concentration in the supernatant was determined using a glycerol assay (Sigma Cat.no. 337) against a standard curve of glycerol in lipolysis standard medium. The relative lipolysis inhibiting activity of the dill extract was calculated by dividing the glycerol formation of sample A of interest by the glycerol formation of sample B.

As for `Cn1c(=O)c2c(ncn2C)n(C)c1=O` [caffeine], the “plasma glucose levels (FIG. 3)” value in test [1] is listed as “significant reduction”. For the same molecule, the “plasma insulin levels (FIG. 3)” value in test [2] is on record as “no reduction”.

As to `CC(C)NCC(O)c1ccc(O)c(O)c1` (stereo not drawn) [isoprenaline], the “Relative lipolysis inhibiting effect” value in test [3] came to 1.
